Experimental data from PubChem BioAssay (NCI).
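A five-concentration, 48-hour dose response in 96-well plates underlies each endpoint, interpolated linearly between surrounding concentrations. GI50 marks 50% less growth. TGI marks complete inhibition of growth.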

Columns and labels:
Experiment in all cases: growth of human tumour cells (NCI), 48 h
[1] = tested on: UO-31 renal
[2] = tested on: OVCAR-4 ovarian
[3] = tested on: U251 CNS
[4] = tested on: KM12 colon
[5] = tested on: SNB-75 CNS
[6] = tested on: OVCAR-3 ovarian
[7] = tested on: HS 578T breast
[8] = tested on: HL-60(TB) leukemia
[9] = tested on: NCI-H522 lung
[10] = tested on: SK-OV-3 ovarian
[11] = tested on: SR leukemia
[12] = tested on: COLO 205 colon
[13] = tested on: BT-549 breast
[14] = tested on: NCI/ADR-RES ovarian
[15] = tested on: HOP-62 NSCLC
[16] = tested on: SF-268 CNS
[17] = tested on: MCF7 breast
[18] = tested on: OVCAR-8 ovarian
[19] = tested on: CAKI-1 renal
[20] = tested on: TK-10 renal
[21] = tested on: SW-620 colon
[22] = tested on: NCI-H226 lung
[23] = tested on: CCRF-CEM leukemia
[24] = tested on: NCI-H23 lung
[25] = tested on: NCI-H460 lung
[26] = tested on: EKVX NSCLC
[27] = tested on: SNB-19 CNS
[28] = tested on: MOLT-4 leukemia
[29] = tested on: HCT-116 colon
[30] = tested on: M14 melanoma
[31] = tested on: UACC-257 melanoma
[32] = tested on: SF-295 CNS
[33] = tested on: IGROV1 ovarian
[34] = tested on: HCC-2998 colon
[35] = tested on: OVCAR-5 ovarian
[36] = tested on: RPMI-8226 leukemia
[37] = tested on: HT29 colon
[38] = tested on: T-47D breast
[39] = tested on: MALME-3M melanoma
[40] = tested on: PC-3 prostate
[41] = tested on: MDA-MB-231 breast
[42] = tested on: RXF 393 renal
[43] = tested on: SN12C renal
[44] = tested on: UACC-62 melanoma
[45] = tested on: SF-539 CNS
[46] = tested on: LOX IMVI melanoma
[47] = tested on: MDA-MB-435
[48] = tested on: HCT-15 colon
[49] = tested on: SK-MEL-5 melanoma
[50] = tested on: ACHN renal
[51] = tested on: DU-145 prostate
[52] = tested on: 786-0 renal
[53] = tested on: SK-MEL-28 melanoma
[54] = tested on: A549 NSCLC
[55] = tested on: SK-MEL-2 melanoma

Molecule C=C(NC(=O)C(=C)NC(=O)c1csc(C2=NC3c4csc(n4)C4NC(=O)c5csc(n5)C(C(C)(O)C(C)O)NC(=O)C5CSC(=N5)C(=CC)NC(=O)C(C(C)O)NC(=O)c5csc(n5)C3(CC2)NC(=O)C(C)NC(=O)C(=C)NC(=O)C(C)NC(=O)C(C(C)CC)NC2C=Cc3c(C(C)O)cc(nc3C2O)C(=O)OC4C)n1)C(N)=O (centres undefined) has a GI50 [1] of 11.4 µM, a TGI [1] of over 100 µM and a GI50 [2] of 9.45 µM. It also gave a TGI [2] of over 100 µM, a GI50 [3] of 9.37 µM and a TGI [3] of 31.8 µM. The GI50 [4] was 5.52 µM, the TGI [4] was 27.5 µM and the GI50 [5] was 8.12 µM. For the same molecule, the TGI [5] was 83.7 µM, the GI50 [6] was 6.59 µM and the TGI [6] was over 100 µM. For the same molecule, the GI50 [7] was over 100 µM, the TGI [7] was over 100 µM and the GI50 [8] was 5.13 µM. The TGI [8] was 31.7 µM, the GI50 [9] was 2.07 µM and the TGI [9] was 4.76 µM. For the same molecule, the GI50 [10] was 54 µM, the TGI [10] was over 100 µM and the TGI [11] was 69.1 µM. It also gave a GI50 [12] of 2.72 µM, a TGI [12] of 13.7 µM and a GI50 [13] of 2.1 µM. It also gave a TGI [13] of 4.71 µM, a GI50 [14] of over 100 µM and a TGI [14] of over 100 µM. The GI50 [15] was 22.9 µM, the TGI [15] was over 100 µM and the GI50 [16] was 19.6 µM. The TGI [16] was over 100 µM, the GI50 [17] was 5.7 µM and the TGI [17] was over 100 µM. It also gave a GI50 [18] of 7.02 µM, a TGI [18] of over 100 µM and a GI50 [19] of 14.6 µM. It also gave a TGI [19] of over 100 µM, a GI50 [20] of 65.5 µM and a TGI [20] of over 100 µM. It also gave a GI50 [21] of 2.73 µM, a TGI [21] of over 100 µM and a GI50 [22] of 2.18 µM. It also gave a TGI [22] of 7.71 µM, a GI50 [23] of 1.83 µM and a TGI [23] of 5.24 µM. The GI50 [24] was 13.7 µM, the TGI [24] was over 100 µM and the GI50 [25] was 17 µM. The TGI [25] was over 100 µM, the GI50 [26] was 32.5 µM and the TGI [26] was over 100 µM. The GI50 [27] was 54 µM, the TGI [27] was over 100 µM and the GI50 [28] was 2.08 µM. The TGI [28] was 5.55 µM, the GI50 [29] was 1.74 µM and the TGI [29] was 4.09 µM. The GI50 [30] was 3.49 µM, the TGI [30] was 12.7 µM and the GI50 [31] was 29.4 µM. It also gave a TGI [31] of over 100 µM, a GI50 [32] of 21.2 µM and a TGI [32] of 66.9 µM. For the same molecule, the GI50 [33] was 64.8 µM, the TGI [33] was over 100 µM and the GI50 [34] was 28.8 µM. For the same molecule, the TGI [34] was over 100 µM, the GI50 [35] was 25.5 µM and the TGI [35] was 79.9 µM. For the same molecule, the GI50 [36] was 1.79 µM, the TGI [36] was 19.7 µM and the GI50 [37] was 10.4 µM. It also gave a TGI [37] of over 100 µM, a GI50 [38] of 4.41 µM and a TGI [38] of 80.7 µM. For the same molecule, the GI50 [39] was 3.14 µM, the TGI [39] was over 100 µM and the GI50 [40] was 77.5 µM. The TGI [40] was over 100 µM, the GI50 [41] was 6.46 µM and the TGI [41] was over 100 µM. For the same molecule, the GI50 [42] was 2.44 µM, the TGI [42] was 7.88 µM and the GI50 [43] was 19.6 µM. It also gave a TGI [43] of over 100 µM, a GI50 [44] of 4.34 µM and a TGI [44] of 32.6 µM. It also gave a GI50 [45] of 4.62 µM, a TGI [45] of 42.9 µM and a GI50 [46] of 3.7 µM. For the same molecule, the TGI [46] was over 100 µM, the GI50 [47] was 3.96 µM and the TGI [47] was over 100 µM. For the same molecule, the GI50 [48] was 65.6 µM, the TGI [48] was over 100 µM and the GI50 [49] was 4.69 µM. For the same molecule, the TGI [49] was 19.8 µM, the GI50 [50] was 8.25 µM and the TGI [50] was over 100 µM. It also gave a GI50 [51] of 58.7 µM, a TGI [51] of over 100 µM and a GI50 [52] of 5.49 µM. The TGI [52] was 19.7 µM, the GI50 [53] was 7.09 µM and the TGI [53] was 24.5 µM. The GI50 [54] was 57.3 µM, the TGI [54] was over 100 µM and the GI50 [55] was 19 µM. It also gave a TGI [55] of over 100 µM.
